{"source": "patent US20230114264A1", "about": "“ACTIVATION OF LYTIC GENES IN CANCER CELLS” (priority 2020, published 2023)", "key": {"BZLF1 [1]": {"test_system": "BZLF1", "assay": "EBV reactivation by BZLF1 gRNA transfection (Casilio) in C666-1 cells stably expressing HA-dCas9-EGFP and 3×FLAG-PUFa-p65HSF1", "assay_type": "cell-based, Epstein-Barr virus (EBV)", "description": "(§1) SNU-719 and C666-1 cells stably expressing HA-dCas9-EGFP and 3×FLAG-PUFa-p65HSF1 were cultivated in RPMI-1640 (Sigma) with 10% fetal bovine serum (FBS) (Gibco) and 1% GlutaMAX (Gibco) and cultured in 37° C. incubator with 5% CO2. EBV reactivation experiments were conducted with cells seeded into 6-well plates at 2×10^6 cells per well the day before transfection. 2 micrograms (μg) of control gRNA or individual BZLF1 gRNA (A3) (SEQ ID NO: 8), gRNA (A4) (SEQ ID NO: 9), gRNA (A5) (SEQ ID NO: 10), or gRNA (A6) (SEQ ID NO: 11) gRNAs were transfected into cells with Lipofectamine 2000 (Invitrogen). After transfection, cells were grown for 48 hours and harvested for protein extraction or FACS (FIGS. 4, 5, 7A-7E).\n(§2) FACS Analysis. Cells were harvested with trypsin and fixed for 15 minutes (mins) with 4% paraformaldehyde. The cells were then centrifuged at 2000×g for 5 mins and resuspended in 3% BSA for 30 mins. The resuspend cells were centrifuged again at 2000×g for 5 mins. Samples were stained with Alexa-647 conjugated anti-BZLF1 monoclonal antibody for 2 hours. Samples were analyzed on a FACSCalibur flow cytometer using CellQuest Pro software (BD Bioscience). Thousands of events were collected in each run.\nQuantitative RT-PCR Analysis. Cells were harvested with trypsin, centrifuged at top speed for 1 min, and RNA was extracted using TRIzol reagent (Invitrogen). 2 μg of total RNA was used to produce a cDNA library using Superscript III Reverse Transcriptase. SYBR Green gene expression assays (Roche) were performed using the GAPDH primers as endogenous control and primers targeting the EBV lytic genes BZLF1, BGLF4, BLRF2 were used to assess EBV reactivation. Power SYBR Green master mix was used for performing real-time quantitative PCR (RT-qPCR). Each reaction was performed with 2 μL of 1:3 diluted cDNA. The RT-qPCR samples were analyzed with a Roche LC480 PCR instrument. Gene expression levels were calculated by “delta Ct” algorithm and normalized to control samples."}, "BZLF1 [2]": {"test_system": "BZLF1", "assay": "p65HSF1 and BZLF1 sgRNA transfection into C666-1 cells stably expressing HA-dCas9-EGFP", "assay_type": "cell-based, Epstein-Barr virus (EBV)", "conditions": "compared among BZLF1 sgRNAs", "description": "SNU-719 and C666-1 cells stably expressing HA-dCas9-EGFP were cultivated in RPMI-1640 (Sigma) with 10% fetal bovine serum (FBS) (Gibco) and 1% GlutaMAX (Gibco) and cultured in a 37° C. incubator with 5% CO2. EBV reactivation experiments were conducted with cells seeded into 6-well plates at 2×10^6 cells per well the day before transfection. 1 microgram (μg) of p65HSF1 and 1 microgram (μg) of control sgRNA or individual BZLF1 sgRNA1 (SEQ ID NO: 8), sgRNA2 (SEQ ID NO: 9), sgRNA 3 (SEQ ID NO: 10), or sgRNA4 (SEQ ID NO: 11) were transfected into cells with Lipofectamine 2000 (Invitrogen). After transfection, cells were grown for 48 hours and harvested for FACS, protein extraction, or RNA extraction (FIGS. 14A-14C). […] The expression of EBV immediate early protein BRLF1 (Rta) and early protein BGLF4 (PK) were also detectable (FIG. 14B)."}, "[3]": {"test_system": "EBV early proteins EA-D and PK", "assay": "BZLF1 and BRLF1 gRNA co-transfection in C666-1 cells, EBV lytic protein expression", "assay_type": "cell-based, Epstein-Barr virus (EBV)", "conditions": "cell lysate 48 hours post-transfection"}, "EBV-negative AKATA cells": {"test_system": "EBV-negative AKATA cells", "assay": "Functional virion proliferation assay", "assay_type": "cell-based", "description": "Functional virion proliferation assay. SNU-719 HA-dCas9-Tet-on-PUFa-p65HSF1-BZLF1 gRNA (3) or C666-1 HA-dCas9-Tet-on-PUFa-p65HSF1-BZLF1 gRNA (A5) cells were seeded into 15 cm culture dish at 70% density the day before being treated with 1 μg/mL DOX. The supernatant was filtered utilizing a […] (Millipore), and virus was collected by ultra-centrifuged at 20,000 rpm for 4 hours at 4° C. and resuspended in 1:30 fresh medium. EBV negative AKATA cells were treated with the medium containing virus for 96 hours, and RNA samples were extracted for quantitative RT-PCR Analysis (FIG. 8J)."}, "BZLF1 [4]": {"test_system": "BZLF1", "assay": "EBV reactivation by BZLF1 gRNA transfection (Casilio) in SNU-719 cells stably expressing HA-dCas9-EGFP and 3×FLAG-PUFa-p65HSF1", "assay_type": "cell-based, Epstein-Barr virus (EBV)", "description": "as §1\nas §2, with “Samples were stained with Alexa-647 conjugated anti-BZLF1 monoclonal antibody for 2 hours.” left out, “Thousands of events were collected in each run.” left out\nQuantitative RT-PCR Analysis. […] Power SYBR Green master mix was used for performing real-time quantitative PCR (RT-qPCR). […] The RT-qPCR samples were analyzed with a Roche LC480 PCR instrument. Gene expression levels were calculated by “delta Ct” algorithm and normalized to control samples."}, "SNU-719 cells": {"test_system": "SNU-719 cells", "assay": "Growth proliferation, viability, apoptosis, cell cycle and clonogenic assays in SNU-719 cells", "assay_type": "cell-based", "description": "(§3) Growth proliferation assay. SNU-719 HA-dCas9-Tet-on-PUFa-p65HSF1-BZLF1 gRNA (3) or C666-1 HA-dCas9-Tet-on-PUFa-p65HSF1-BZLF1 gRNA (A5) cells were seeded into individual wells of a 96-well plate for at 1×10^5 cells per well the day before being treated with 1 μg/mL DOX and Ganciclovir (GCV). Cells were counted with the cell counting kit-8 (CCK-8, Sigma) at day 6, day 7, and day 8 (FIGS. 8H-8I).\n(§4) Active caspase-3 analysis. To detect the apoptosis in DOX treated dCas9-Tet on-p65HSF1-BZLF1sgRNA3 SNU719 and C17 cells, active caspase-3 apoptosis kit (BD Pharmingen #550914) was used. Untreated and treated cells were trypsinized and then fixed with fixation buffer in ice for 20 mins and washed with washing buffer twice. Cells were then stained with the PE conjugated rabbit anti active caspase-3 antibody in dark for 30 mins. Stained cells were collected with BD LSRFortessa.\n(§5) Cell cycle analysis. After 96 hours from induction of DOX, dCas9-Tet on-p65HSF1-BZLF1sgRNA3 SNU719 and C17 cells were trypsinized and then fixed with 75% cold ethanol for 2 hrs at −20° C. Cells were washed three times with cold PBS and then resuspended in PBS containing 100 μg/mL RNase A and 10 μg/mL propidium iodide for 10 min at room temperature. Stained cells were collected with BD LSRFortessa.\n(§6) Clonogenic assays. Cells were seeded at a density of 500 cells/well in 6-well plates the day before treatment. Then cells were stained with 0.5% crystal violet 14 days after treatment, and at least 50 cells were considered as a single colony"}, "C666-1 cells": {"test_system": "C666-1 cells", "assay": "Growth proliferation, viability, apoptosis, cell cycle and clonogenic assays in C666-1 cells", "assay_type": "cell-based", "description": "as §3, §4, §5, §6"}}, "data": [{"substance": "BZLF1 gRNA (A5): BZLF1 gRNA spacer sequence SEQ ID NO: 10, GAAACTATGCATGAGCCAC (chemistry not given here)", "values": [{"measurement": "EBV reactivation, induction of BZLF1 (Zta) protein expression", "setting": "BZLF1 [1]; C666-1, 2 μg gRNA, 48 hours after transfection, protein extraction or FACS", "result": "reactivate EBV expression at detectable levels"}, {"measurement": "BZLF1 (ZTa) protein expression by immunostaining", "setting": "BZLF1 [1]; C666-1, FIG. 7D", "result": "activated BZLF1 (ZTa) protein expression"}, {"measurement": "expression of the downstream EBV genes BGLF4 and BLRF2", "setting": "BZLF1 [1]; RT-qPCR, FIG. 7F, cell line not stated", "result": "induces the expression of the downstream EBV genes BGLF4 and BLRF2"}, {"measurement": "expression level of BZLF1 in protein and RNA samples", "setting": "BZLF1 [2]", "result": "highest expression level of BZLF1"}, {"measurement": "EBV reactivation, expression of the EBV early proteins EA-D and PK", "setting": "[3]", "result": "induce EBV reactivation"}, {"measurement": "infection of EBV-negative AKATA cells, EBV gene expression detectable (e.g. LMP1, EBER1, EBNA1, BZLF1, BRLF1)", "setting": "EBV-negative AKATA cells; supernatant from DOX treated C17 cells", "result": "able to infect the EBV-negative AKATA cells"}, {"measurement": "infection of EBV-negative AKATA cells, EBV gene expression detectable (e.g. LMP1, EBER1, EBNA1, BZLF1, BRLF1)", "setting": "EBV-negative AKATA cells; supernatant from DOX treated SNU-719 cells", "result": "able to infect the EBV-negative AKATA cells"}, {"measurement": "infection of EBV-negative AKATA cells and EBV gene expression (e.g. EBER1)", "setting": "EBV-negative AKATA cells; supernatant from SNU-719 cells expressing HA-dCas9-EGFP, gRNA and 3×FLAG-PUFa-p65HSF1", "result": "able to infect and trigger the EBV gene expression"}, {"measurement": "EBV reactivation, induction of BZLF1 (Zta) protein expression", "setting": "BZLF1 [4]; 2 μg gRNA, 48 hours after transfection, protein extraction or FACS", "result": "reactivate EBV expression at detectable levels"}, {"measurement": "BZLF1 (ZTa) protein expression by immunostaining", "setting": "BZLF1 [4]; FIG. 7E", "result": "activated BZLF1 (ZTa) protein expression"}, {"measurement": "cell cycle by flow cytometry", "setting": "SNU-719 cells; SNU719, DOX induced, FIG. 17B", "result": "sub G1 phase accumulation and S phase decrease"}, {"measurement": "monolayer colony formation", "setting": "SNU-719 cells; SNU719, after DOX induction, FIG. 17E", "result": "dramatic suppression"}, {"measurement": "cell proliferation, apoptosis and growth of cells in vitro", "setting": "SNU-719 cells; SNU-719, DOX-induced EBV reactivation", "result": "suppressed the cell proliferation, induced apoptosis, and slowed the growth of cells"}, {"measurement": "slowing of growth rate of cells compared with cells treated with ganciclovir (GCV) alone", "setting": "SNU-719 cells; SNU-719, EBV reactivation by 1 μg/mL DOX, FIG. 8I", "result": "greater than 4 fold"}, {"measurement": "cell cycle by flow cytometry", "setting": "C666-1 cells; DOX induced, FIG. 17B", "result": "sub G1 phase accumulation and S phase decrease"}, {"measurement": "cell proliferation, apoptosis and growth of cells in vitro", "setting": "C666-1 cells; DOX-induced EBV reactivation", "result": "suppressed the cell proliferation, induced apoptosis, and slowed the growth of cells"}, {"measurement": "slowing of growth rate of cells compared with cells treated with ganciclovir (GCV) alone", "setting": "C666-1 cells; EBV reactivation, FIGS. 3B, 6A, 8H", "result": "greater than 4 fold"}, {"measurement": "decrease of C666-1 cell viability relative to control", "setting": "C666-1 cells; FIG. 6B, 120 hours following treatment", "result": "50-70%"}, {"measurement": "monolayer colony formation", "setting": "C666-1 cells; after DOX induction, FIG. 17E", "result": "dramatic suppression"}]}]}
